According to patent US6914045B2, “Glycopeptide antibiotics” (Wyeth Holdings Corporation, priority 2001, dated 2005):
Values after ≈ are worked out from the molar mass of the structure shown.

What was measured:
Assay in all cases: in vitro antibacterial evaluation, MIC by broth dilution
Format in all cases: cell-based
[1] = tested on: Escherichia coli
Method in brief: (§1)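 Test organisms, which included recent clinical isolates resistant to methicillin, penicillin and/or vancomycin, were inoculated at 5×10^5 CFU/mL into Muller-Hinton II […] containing antibiotic at 64-0.06 μg/mL. Minimum inhibitory concentrations were then read as the lowest level inhibiting growth.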

[2] = tested on: Streptococcus sp.; settings: broth dilution, 18 hours at 35° C.; for MIC Streptococcus pneumoniae (ATCC 6301): strain ATCC 6301; for MIC Streptococcus pneumoniae (GC 1894): strain GC 1894; for MIC Streptococcus pyogenes (GC 4563): strain GC 4563; for MIC Streptococcus agalactiae (GC 4564): strain GC 4564; for MIC Streptococcus pneumoniae (GC 4565): strain GC 4565
Method in brief: as §1

[3] = tested on: Enterococcus sp.; settings: broth dilution, 18 hours at 35° C.; for MIC Enterococcus faecalis (ATCC 29212): strain ATCC 29212; for MIC Enterococcus faecalis (GC 2242): strain GC 2242; for MIC Enterococcus faecium (GC 2243): strain GC 2243; for MIC Enterococcus faecalis (GC 2691): strain GC 2691; for MIC Enterococcus faecalis (GC 3059): strain GC 3059; for MIC Enterococcus faecalis (GC 4552): strain GC 4552; for MIC Enterococcus faecalis (GC 4553): strain GC 4553; for MIC Enterococcus faecalis (GC 4554): strain GC 4554; for MIC Enterococcus faecium (GC 4556): strain GC 4556; for MIC Enterococcus faecium (GC 4557): strain GC 4557; for MIC Enterococcus avium (GC 4558): strain GC 4558; for MIC Enterococcus faecalis (GC 6189): strain GC 6189
Method in brief: as §1

[4] = tested on: Staphylococcus sp.; settings: broth dilution, 18 hours at 35° C.; for MIC Staphylococcus aureus (GC 1131): strain GC 1131
Method in brief: as §1

MIC Escherichia coli (ATCC 25922) ([1]; strain ATCC 25922, 18 hours at 35° C.): 32 µg/mL (≈ 21.8 µM) | MIC Escherichia coli (GC 4559) ([1]; strain GC 4559, 18 hours at 35° C.): 32 µg/mL (≈ 21.8 µM) | MIC Escherichia coli (GC 4560) ([1]; strain GC 4560, 18 hours at 35° C.): 8 µg/mL (≈ 5.46 µM) | MIC Streptococcus pneumoniae (ATCC 6301) ([2]; inoculum 5×10^5 CFU/mL): 1 µg/mL (≈ 0.682 µM) | MIC Streptococcus pneumoniae (GC 1894) ([2]; inoculum 5×10^5 CFU/mL): 0.25 µg/mL (≈ 0.171 µM) | MIC Streptococcus pyogenes (GC 4563) ([2]; inoculum 5×10^5 CFU/mL): 0.5 µg/mL (≈ 0.341 µM) | MIC Streptococcus agalactiae (GC 4564) ([2]; inoculum 5×10^5 CFU/mL): 1 µg/mL (≈ 0.682 µM) | MIC Streptococcus pneumoniae (GC 4565) ([2]; inoculum 5×10^5 CFU/mL): 1 µg/mL (≈ 0.682 µM) | MIC Streptococcus pneumoniae (ATCC 6301) [2]: 1 µg/mL (≈ 0.682 µM) | MIC Streptococcus pneumoniae (GC 1894) [2]: 0.25 µg/mL (≈ 0.171 µM) | MIC Streptococcus pyogenes (GC 4563) [2]: 0.5 µg/mL (≈ 0.341 µM) | MIC Streptococcus agalactiae (GC 4564) [2]: 1 µg/mL (≈ 0.682 µM) | MIC Streptococcus pneumoniae (GC 4565) [2]: 1 µg/mL (≈ 0.682 µM) | MIC Enterococcus faecalis (ATCC 29212) ([3]; inoculum 5×10^5 CFU/mL): 16 µg/mL (≈ 10.9 µM) | MIC Enterococcus faecalis (GC 2242) ([3]; inoculum 5×10^5 CFU/mL): 16 µg/mL (≈ 10.9 µM) | MIC Enterococcus faecium (GC 2243) ([3]; inoculum 5×10^5 CFU/mL): 8 µg/mL (≈ 5.46 µM) | MIC Enterococcus faecalis (GC 2691) ([3]; inoculum 5×10^5 CFU/mL): 16 µg/mL (≈ 10.9 µM) | MIC Enterococcus faecalis (GC 3059) ([3]; inoculum 5×10^5 CFU/mL): 16 µg/mL (≈ 10.9 µM) | MIC Enterococcus faecalis (GC 4552) ([3]; inoculum 5×10^5 CFU/mL): 16 µg/mL (≈ 10.9 µM) | MIC Enterococcus faecalis (GC 4553) ([3]; inoculum 5×10^5 CFU/mL): 16 µg/mL (≈ 10.9 µM) | MIC Enterococcus faecalis (GC 4554) ([3]; inoculum 5×10^5 CFU/mL): 16 µg/mL (≈ 10.9 µM) | MIC Enterococcus faecium (GC 4556) ([3]; inoculum 5×10^5 CFU/mL): 16 µg/mL (≈ 10.9 µM) | MIC Enterococcus faecium (GC 4557) ([3]; inoculum 5×10^5 CFU/mL): 4 µg/mL (≈ 2.73 µM) | MIC Enterococcus avium (GC 4558) ([3]; inoculum 5×10^5 CFU/mL): 8 µg/mL (≈ 5.46 µM) | MIC Enterococcus faecalis (GC 6189) ([3]; inoculum 5×10^5 CFU/mL): 16 µg/mL (≈ 10.9 µM) | MIC Enterococcus faecalis (ATCC 29212) [3]: 16 µg/mL (≈ 10.9 µM) | MIC Enterococcus faecalis (GC 2242) [3]: 16 µg/mL (≈ 10.9 µM) | MIC Enterococcus faecium (GC 2243) [3]: 8 µg/mL (≈ 5.46 µM) | MIC Enterococcus faecalis (GC 2691) [3]: 16 µg/mL (≈ 10.9 µM) | MIC Enterococcus faecalis (GC 3059) [3]: 16 µg/mL (≈ 10.9 µM) | MIC Enterococcus faecalis (GC 4552) [3]: 16 µg/mL (≈ 10.9 µM) | MIC Enterococcus faecalis (GC 4553) [3]: 16 µg/mL (≈ 10.9 µM) | MIC Enterococcus faecalis (GC 4554) [3]: 16 µg/mL (≈ 10.9 µM) | MIC Enterococcus faecium (GC 4556) [3]: 16 µg/mL (≈ 10.9 µM) | MIC Enterococcus faecium (GC 4557) [3]: 4 µg/mL (≈ 2.73 µM) | MIC Enterococcus avium (GC 4558) [3]: 8 µg/mL (≈ 5.46 µM) | MIC Enterococcus faecalis (GC 6189) [3]: 16 µg/mL (≈ 10.9 µM) | MIC Staphylococcus aureus (GC 1131) ([4]; inoculum 5×10^5 CFU/mL): 8 µg/mL (≈ 5.46 µM) | MIC Staphylococcus aureus (ATCC 29213) ([4]; strain ATCC 29213): 8 µg/mL (≈ 5.46 µM) | MIC Staphylococcus aureus (GC 1131) [4]: 8 µg/mL (≈ 5.46 µM) | MIC Staphylococcus aureus (GC 3051) ([4]; strain GC 3051): 8 µg/mL (≈ 5.46 µM) | MIC Staphylococcus aureus (GC 3053) ([4]; strain GC 3053): 8 µg/mL (≈ 5.46 µM) | MIC Staphylococcus aureus (GC 4541) ([4]; strain GC 4541): 8 µg/mL (≈ 5.46 µM) | MIC Staphylococcus aureus (GC 4542) ([4]; strain GC 4542): 16 µg/mL (≈ 10.9 µM) | MIC Staphylococcus aureus-SMITH (GC 4543) ([4]; strain GC 4543): 8 µg/mL (≈ 5.46 µM) | MIC Staphylococcus aureus (GC 4544) ([4]; strain GC 4544): 8 µg/mL (≈ 5.46 µM) | MIC Staphylococcus aureus (GC 4545) ([4]; strain GC 4545): 8 µg/mL (≈ 5.46 µM) | MIC Coagulase Negative Staphylococcus (GC 4547) ([4]; strain GC 4547): 8 µg/mL (≈ 5.46 µM) | MIC Coagulase Negative Staphylococcus (GC 4548) ([4]; strain GC 4548): 4 µg/mL (≈ 2.73 µM) | MIC Coagulase Negative Staphylococcus (GC 4549) ([4]; strain GC 4549): 4 µg/mL (≈ 2.73 µM) | MIC Coagulase Negative Staphylococcus (GC 4551) ([4]; strain GC 4551): 8 µg/mL (≈ 5.46 µM) | MIC Coagulase Negative Staphylococcus (GC 6257) ([4]; strain GC 6257): 4 µg/mL (≈ 2.73 µM) | MIC Staphylococcus aureus-SMITH (GC 4543) ([4]; strain SMITH GC 4543): 8 µg/mL (≈ 5.46 µM)
Structure (SMILES): CC(c1ccccc1)C1NC(=O)CNC(=O)C(CO)NC(=O)C(C(O)C2CNC(=N)N2C2OC(CO)C(O)C(O)C2O)NC(=O)C(C(O)C2CNC(=N)N2)NC(=O)C(Cc2ccc(OC3OC(CO)C(OC4OC(CO)C(O)C5OC(c6ccc(-c7ccsc7)cc6)OC45)C(O)C3O)cc2)NC1=O (stereo not drawn) [Example 164a]
MIC Staphylococcus haemolyticus (GC 4546) ([4]; strain GC 4546): 4 µg/mL (≈ 2.73 µM)
